Laboratory results: patent EP0176913A2, “Glycourethane derivatives, methods for their preparation and their use” (BEHRINGWERKE Aktiengesellschaft, priority 1984, dated 1986)

Tested on: Erdnußlectin (Arachis Hypogea)
Test: Inhibition of peanut lectin haemagglutination of neuraminidase-treated erythrocytes
Assay type: cell-based
Details: compound at 0,5 mg/ml; erythrocytes as 2,5% suspension; lectin titer 2-^8
Procedure: Inhibition von Erdnußlectin (Arachis Hypogea) mit Verbindung 29
Die Hämagglutination von Neuraminidase(VCN)-behandelten Erythrozyten (als 2,5%-ige Suspension) mit Erdunßlectin (Titer 2-^8) wurde vollständig mit Verbindung 29 (0,5 mg/ml) inhibiert.

With CC(=O)N[C@H]1[C@@H](OC(=O)N[C@@H](CO)C(=O)NCCCCCC(=O)O)O[C@H](CO)[C@H](O)[C@@H]1O[C@@H]1O[C@H](CO)[C@H](O)[C@H](O)[C@H]1O [Verbindung 29, N-((2-Acetamido-2-desoxy-3-0-(8-D-galactopyranosyl)-alpha-D-galactopyranosyl)-oxycarbonyl)-L-seryl-S-carboxy-pentylamid] the “Hämagglutination von Neuraminidase(VCN)-behandelten Erythrozyten mit Erdunßlectin inhibiert” value was “vollständig”.
